Patent US10815200B2, “18F—tagged inhibitors of prostate specific membrane antigen (PSMA) and their use as imaging agents for prostate cancer” (DEUTSCHES KREBSFORSCHUNGSZENTRUM, priority 2015, dated 2020)

Experiments:
prostate cancer = experiment: First-in-man PET study in patients suffering from prostate cancer, with histopathology correlation; assay type: in vivo, human
Description: Ten patients (age 60-80 years) suffering from a newly diagnosed high-risk prostate cancer with a gleason score of 7-9 and initial PSA levels of 5-90 ng/ml were injected 100-360 MBq [^18F]-PSMA-1007 and subsequently PET scans were performed on a Biograph mCT Flow scanner (Siemens, Erlangen, Germany) at 1 and 3 h p.i. The results are depicted in FIGS. 17 and 18 as mean values of the SUVmean and SUVmax, respectively. The pictures gained with the PET scans are exemplified in FIGS. 19 and 20 as maximum intensity projections.
Eight of the patients underwent radical prostatectomy with extended pelvic lymphadenectomy. Analyses of prostatectomy specimen were performed blinded to PET-data under the supervision of dedicated uropathologists, according to International Society of Urological Pathology standards (T. H. van der Kwast et al. Mod. Phathol. 2011, 24, 16-25). Representative sections were stained by immunohistochemistry. The sections were deparaffinized in xylene and rehydrated in a graded ethanol series. Antigen retrieval was performed with a steam cooker using retrieval buffer (Target Retrieval Solution, Dako). A mouse monoclonal antibody against PSMA (clone 3E6, Dako) was used at a 1:100 dilution and incubated overnight at 4° C. ad subsequently immunodetection was performed using the Histostain-Plus detection kit (Invitrogen). Stained sections were scanned using a Nanozoomer 2.0-HT Scansystem (Hamamatsu Photonics) to generate digital whole slide images.

[1] = tested on: PC3-tumor (PSMA negative); experiment: Organ distribution in mice carrying a PC3-tumor (PSMA negative); assay type: in vivo
Description: (§1) For in vivo experiments, 8 week old BALB/c nu/nu mice were subcutaneously inoculated into the right trunk with 5×10^6 LNCaP- or PC3-cells in 50% Matrigel. When the size of tumor was approximately 1 cm^3, the radiolabeled compound was injected via the tail vein (ca. 30 MBq, 60 pmol for μPET imaging; ca. 1 MBq, 60 pmol for organ distribution).
(§2) The F-18 labeled compounds were injected via tail vein (1-2 MBq per mouse; 60 pmol). At 1 h after injection, the animals were sacrificed. Organs of interest were dissected, blotted dry, and weighed. The radioactivity was measured with a gamma counter (Packard Cobra II, GMI, Minnesota, USA) and calculated as % ID/g.

LNCaP tumor xenografts = experiment: MicroPET in mice bearing LNCaP tumor xenografts; assay type: in vivo; conditions: 120-140 min p.i.
Description: For the microPET studies, 10-25 MBq of the radiolabeled compounds in a volume of 0.10 ml (60 pmol) were injected via a lateral tail vein into mice bearing LNCaP tumor xenografts. The anesthetized animals (2% sevoflurane, Abbott, Wiesbaden, Germany) were placed in prone position into the Inveon small animal PET scanner (Siemens, Knoxville, Tenn., USA) to perform dynamic microPET scans.
as §1

LNCaP cells = experiment: Specific cell uptake and internalization in LNCaP cells; assay type: cell-based, human
Description: During cell culture, cells were grown at 37° C. in an incubator with humidified air, equilibrated with 5% CO2. […] To determine the specific cell uptake and internalization, 10^5 cells were seeded in poly-L-lysine coated 24-well cell culture plates 24 h before incubation. After washing, the cells were incubated with 30 nM of the radiolabeled compounds for 45 min at 37° C. […] Cellular uptake was terminated by washing 3 times with 1 mL of ice-cold PBS. […] The cells were washed with 1 mL of ice-cold PBS and lysed using 0.3 N NaOH (0.5 mL). The surface-bound and the internalized fractions were measured in a gamma counter. The cell uptake was calculated as percent of the initially added radioactivity bound to 10^5 cells [% ID/10^5 cells].

[2] = PET/CT dosimetry and kinetics in a healthy volunteer; assay type: in vivo, human
Description: The healthy subject was injected a total activity of 300 MBq and subsequently PET scans were performed on a Biograph mCT Flow scanner (Siemens, Erlangen, Germany) in three blocks. Block 1 contained PET-1 (start 5 min p.i.) to PET-7 (ending 140 min p.i.), block 2 contained PET-8 (start 180 min p.i.) and PET-9 (240-270 min p.i.), block 3 contained PET-10 (440-480 min p.i.). A non-enhanced low-dose CT (estimate 1.43 mSv, respectively) for attenuation correction was performed at the beginning of each block, followed by serial emission scans without moving the volunteer in between.
Kidneys, liver, spleen, whole heart, upper and lower large intestine, parotid glands, submandibular glands and urinary bladder were segmented into volumes of interest (VOIs) using a percentage of maximum threshold between 20% and 30% using the corresponding CT as guidance and then time activity curves (TACs) were calculated for all organs. The TAC for red marrow was derived from the venous blood samples and then the dose for the red marrow calculated (S. Shen et al., JNM 2002, 43, 1245-1253; G. Sgouros et al., JNM 1993, 34, 689-694.). The TAC for the urinary bladder content was a combination of estimated activity in the urinary bladder VOI in PET and activity measured in the voided urine. Curve fitting was applied to all TACs. Kidneys, salivary glands, upper and lower large intestine and heart were fitted with a bi-exponential function. For liver, spleen and urinary bladder content a mono-exponential fit to the last three time points was performed.
Absorbed and effective dose calculations were performed using the ICRP endorsed IDAC 1.0 package which is integrated in QDOSE. Additionally, residence times of all included source organs and remainder body were exported as an OLINDA case file for dose calculation (OLINDA 1.1). The absorbed doses to the salivary glands (parotid and submandibular glands) were determined using the spherical model. The organ masses for the salivary glands were estimated with 25 g for a parotid and 12.5 g for a submandibular gland (ICRP publication 89).

[3] = tested on: LNCaP tumor (PSMA positive); assay type: in vivo, mice
Description: as §1, §2

[4] = 30 nM radiolabeled compound, 45 min, 37° C., specific (PMPA block)

## O=C(O)CCC(NC(=O)NC(CCCCNC(=O)C(Cc1ccc2ccccc2c1)NC(=O)c1ccc(CNC(=O)C(CCC(=O)O)NC(=O)C(CCC(=O)O)NC(=O)c2ccc([18F])nc2)cc1)C(=O)O)C(=O)O (centres unmarked) [PSMA-1007, (Glu)-(Urea)-(Lys)-(2-Nal)-(Bn)-(Glu)-(Glu)-FN]
Prostate cancer
  correlation of prostatectomy histopathology with PET images: nearly perfect correlation
  diameter of detected lymph node metastases: ≥ 1 mm
  specificity (correlation with pelvic lymphadenectomy samples): 95%
Prostate cancer; calculated from SUVmax
  tumor-to-background ratios in the primary tumor: up to 10
[1]
  tumor uptake: practically no tumor uptake was observed
LNCaP tumor xenografts
  SUVmax of LNCaP tumor: 3.1
LNCaP cells; [4]
  Cell surface: 2.7 % ID/10^5 cells
  Internalised: 6.5 % ID/10^5 cells
LNCaP cells; (Internalized activity/total activity)*100
  Internalized fraction: 71%
[2]; 200-250 MBq, healthy volunteer
  effective dose of a PET/CT scan: 4.3-5.4 mSv
[2]; healthy volunteer
  blood pool activity found in the serum: More than 95%
  effective dose per injected activity: 0.0215 mSv/MBq
[2]; in comparison to other known PSMA-tracers
  clearance pathway: very unique hepatobiliary clearance with very small clearance via the renal pathway
[2]; within the first 3 h after injection, healthy volunteer
  clearance from the blood pool: more than 90%
[3]; LNCaP tumor mice with PMPA block
  blocking of tumor binding in the blocking experiment: a quantitative blocking of the binding was not observed
[3]; LNCaP tumor mice, 1 h after injection, non-blocked
  tumor uptake: about 8.0±2.4 % ID/g
[3]; mouse, in vivo
  uptake in non-target tissue such as the liver and the small intestine: significantly reduced uptake
